# Data: patent publication US10105362B2, “Anti-tumor use of anagrelide and derivatives thereof” (SHANGHAI INSTITUTE OF MATERIA MEDICA, CHINESE ACADEMY OF …, priority 2013, dated 2018)
# “Also recorded” adds a separate entry of the source.
# Experiments:
# [1] = test system: tumor cells; experiment: Growth inhibition of tumor cells (summary statement); type: cell-based; conditions: 10 nM/L
# [2] = Blood routine test of tumor-bearing nude mice (WBC, RBC, Hb, PLT); type: in vivo, BALB/c naked mouse; conditions: day 21, vs vehicle control
# Procedure: (§1) Under aseptic conditions, tumor cells in the proliferation stage were taken. The cell concentration was adjusted after digestion, seeded at right armpit of nude mice, and the inoculated volume was 0.1 mL. Tumor diameter was measured with vernier caliper, after the tumor was grown to 200-300 mm^3, the tumor-bearing mice were selected, and randomly divided into 3 groups (n=4) according to the size of the tumors: negative control group, Anagrelide I (10 mg/kg), Anagrelide II (30 mg/kg). Each group was intragastric administrated, the day of administration was recorded as d1, the negative control group was given same amount of vehicle, and then the long and short diameters of tumor were measured twice a week, while the body weights of mice were weighed. At the 21th day of the administration, the animals were sacrificed and the tumor was dissected and weighed. Before the animals were sacrificed, eyeball was taken for blood sample, the number of white blood cell (WBC), red blood cell (RBC), concentration of hemoglobin (Hb) and number of platelet (PLT) were measured.
# [3] = test system: A498 cells; experiment: RTCA real-time monitoring of cell growth; type: cell-based, human; conditions: 100 nM, within 72 hours
# Procedure: (§2) A real-time monitor from Roche was used to detect growth of cells. […] Logarithmic growth phase cells were digested with trypsin, centrifuged and resuspended, and were seeded at 3.5×10^4 /mL per well in 16-well plate matching to cell supporting real-time monitor, and the compound was dosed after 37° C. overnight incubation. Real-time monitoring was used to automatically detect the status of cell growth, and the cell number was reflected by the size of the resistance formed after cell spreading. The larger the cell index value, the faster the cell growth, and the more the number of cells. To further examine Anagrelide inhibition of cell growth, Hela, H4, FHCC98, SMMC7721, BEL7404, A498, SW1116 were taken for further experiment. Through cell real-time monitoring device, real-time monitoring of cell growth status change within 72 hours after Anagrelide administration was conducted (FIG. 3). 3000 cells/100 uL were plated, cultivated overnight, and 100 nM Anagrelide was added. The growth of cells was detected with real-time monitor.
# [4] = test system: Bel7404 cells; experiment: RTCA real-time monitoring of cell growth; type: cell-based, human; conditions: 100 nM, within 72 hours
# Procedure: as §2
# [5] = test system: FHCC98 cells; experiment: RTCA real-time monitoring of cell growth; type: cell-based, human; conditions: 100 nM, within 72 hours
# Procedure: as §2
# [6] = test system: PARP cleavage in FHCC 98 cells; experiment: PARP cleavage by Western Blotting (apoptosis); type: cell-based, human; conditions: 100 nM, different time points
# Description: (§3) 1) Vertical electrophoretic separation of proteins: 8%-10% SDS-polyacrylamide (SDA-PAGE) gel electrophoresis separation, 5% stacking gel. The voltage for stacking gel was 80V, separation gel separation voltage for separating gel was 120V, and electrophoresis was stopped when bromophenol blue indicator ran to the bottom; 2) membrane transferring: semi-dry transferring: transmembrane voltage was 10-15V, and the time was adjusted according to the size of the protein; 3) pre-stained with Ponceau to observe transmembrane effect; 4) blocking: It was blocked with 5% skim milk in TBST and oscillated on Decolorization shaker at room temperature for 1 hour; 5) the binding with first antibody: The antibody was diluted at 1: 2000 to 1: 10000 in TBST containing 5% BSA, oscillated on decolorization shaker 1 hour under room temperature for binding, and placed at 4° C. overnight. TBST was used to wash for three times, and 10 minutes for each time. 6) the binding with secondary antibody: The antibody was diluted at 1:5000 to 1:10000 in TBST containing 5% BSA, and oscillated on decolorization shaker 1 hour for binding under room temperature. TBST was used to wash for three times, and 10 minutes for each time. ECL developing kit was used to treat substrate for 2-3 minutes, detected for chemiluminescence, and exposed on X-ray film. […] The PARP cleavage was detected by Western Blotting.
# [7] = test system: PARP cleavage in H4 cells; experiment: PARP cleavage by Western Blotting (apoptosis); type: cell-based, human; conditions: 100 nM, different time points
# Description: as §3
# [8] = test system: HeLa cells; experiment: Cell cycle distribution by PI staining and flow cytometry; type: cell-based, human; conditions: 100 nM, 24 hours
# Procedure: (§4) Logarithmic growth phase cells were seeded in 6-well culture plate in 5×10^5/mL concentration, 1.5 mL of culture medium in each well, and cultured overnight. Different concentrations of drugs were added to stimulate for a certain time, and then the cells were collected into 1.5 mL EP tube. The cells were washed with cold PBS for 1-2 times, little PBS (about 200 ul) was added and blown to uniform. 1 mL 75% ethanol was pre-cooled (prepared with PBS), and cells was added dropwise into alcohol solution which was oscillated on shaker, fixed under 4° C. overnight. After 1000rpm centrifuged for 5 min, the supernatant was discarded and 1-2 mL PBS was added to wash twice. The cells were suspended with 0.5 mL RnaseA (1.0 mg/ml), and digested under 37° C. for 1 h. The cells were resuspended with 0.5 mL 25 ug/mL PI dye liquor, and were kept in dark place under 4° C. for 30 min. The cells were filtered with 300 mesh sieve, and the cell cycle distribution was analyzed with flow cytometry.
# (§5) In order to determine whether Anagrelide had affected the cell cycle of tumor cells, SMMC7721, HeLa, SW1116 were taken as example to represent sensitive cells and relatively sensitive cells to detect the effect on cell cycle of Anagrelide by PI staining and flow cytometry (FIG. 4 and FIG. 5).
# [9] = test system: SMMC7721 cells; experiment: as above; type: cell-based, human; conditions: 100 nM, 24 hours
# Procedure: as §4, §5
# [10] = test system: SW1116 cells; experiment: as above; type: cell-based, human; conditions: 100 nM, 24 hours
# Procedure: as §4, §5
# [11] = Body weight of tumor-bearing nude mice; type: in vivo, BALB/c naked mouse; conditions: 21 days
# Procedure: as §1
compound,measurement,setting,value
"O=C1CN2Cc3c(ccc(Cl)c3Cl)N=C2N1 [Anagrelide, 6,7-dichloro-1,5-dihydro-imidazo [2,1-b] quinazolin-2 (3H)-one]",growth inhibition of tumor cells,[1],obviously inhibit the growth of tumor cells
same,"blood routine test index (WBC, RBC, Hb, PLT)",[2]; 10 mg/kg intragastric,didn't show any significant decrease
same,"blood routine test index (WBC, RBC, Hb, PLT)",[2]; 30 mg/kg intragastric,didn't show any significant decrease
same,"cell growth status, real-time monitoring",[3],"did not cause the cell apoptosis within 72 hours, but the growth was suppressed"
same,"cell growth status, real-time monitoring",[4],"did not cause the cell apoptosis within 72 hours, but the growth was suppressed"
same,"cell growth status, real-time monitoring",[5],ultimately induced the cell death
same,PARP cleavage,[6],PARP cleavage was gradually increased with time
same,PARP cleavage,[7],PARP cleavage was gradually increased with time
same,effect on cell cycle (cycle arrest),[8],"a significant G1, G2 cycle arrest was produced; also recorded: the cycle arrest was very strong"
same,effect on cell cycle (cycle arrest),[9],"a significant G1, G2 cycle arrest was produced; also recorded: the cycle arrest was very strong"
same,effect on cell cycle (cycle arrest),[10],a relatively weaker effect of cycle arresting; also recorded: a significant cycle arrest phenomenon was produced
same,effect on animal body weight,[11]; 10 mg/kg intragastric,no significant difference from the negative control group
same,effect on animal body weight,[11]; 30 mg/kg intragastric,no significant difference from the negative control group
